40 molecules from PubChem BioAssay AID1332 (Southern Research Institute, 2008) can be followed below.

Values after ≈ are worked out from the molar mass of the structure shown. Starred links: 1 amine or outer side, 2 acyl side, 3 side chain; linkers in the order of their positions; H or OH if unused. Positions of bridges follow the written chain, without caps; N, C: chain ends. Non-standard residues stand in square brackets, D forms with d. Residues, ends and D or L forms follow the SMILES beside them. *: point of attachment. X2 = NC1=N[C@@H]([C@H](N[*:1])C(=O)[*:2])C[C@H](O)N1; ΔAla(Z-3-ureido) = NC(=O)N/C=C(\N)C(=O)O; β3hOrn = NCCC[C@H](N)CC(=O)*; Dap = NC[C@H](N)C(=O)O

In this experiment the test system is M. tuberculosis H37Rv growth inhibition. The experiment can be described thus: Confirmatory growth inhibition assay, mycobacterium tuberculosis h37rv, with cytotoxicity (AID 1332).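 Also: bacteria incubated 7 days before adding Alamar blue readout reagent.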

Consider `CN[C@@H]1C(O[C@H]2O[C@H](CO)[C@@H](N)[C@H](O)[C@H]2O)O[C@H]2C[C@@H](N)[C@@H](O[C@H]3[C@H](O)[C@@H](O)[C@H](N)C[C@@H]3N)OC2[C@@H]1O` (stereo not given in full), for which the IC90 was 3.57 µg/mL (≈ 6.61 µM).
Turning to `CN(C)CCCN1c2ccccc2CCc2ccc(Cl)cc21`, the IC90 is 9.56 µg/mL (≈ 30.4 µM).
The value for `CN(C)[C@@H]1C(=O)C(C(N)=O)=C(O)[C@@]2(O)C(=O)C3=C(O)c4c(O)ccc(Cl)c4[C@@H](O)[C@H]3C[C@@H]12` was 12.6 µg/mL (≈ 27.1 µM); that for `Nc1ccc(S(=O)(=O)Nc2cnc3ccccc3n2)cc1` was 12.7 µg/mL (≈ 42.3 µM); that for `NCC[C@H](O)C(=O)N[C@@H]1C[C@H](N)[C@@H](O[C@H]2O[C@H](CN)[C@@H](O)[C@H](O)[C@H]2O)[C@H](O)[C@H]1O[C@H]1O[C@H](CO)[C@@H](O)[C@H](N)[C@H]1O` was 0.04 µg/mL (≈ 0.0683 µM).
Then `Fc1ccc(C(OCCN2CCN(CCCc3ccccc3)CC2)c2ccc(F)cc2)cc1`, with 3.58 µg/mL (≈ 7.94 µM); and `Cc1cccc(CN2CCN(C(c3ccccc3)c3ccc(Cl)cc3)CC2)c1` (stereo not given), with 7.72 µg/mL (≈ 19.7 µM); and `NC(=NCCCCCCN=C(N)/N=C(\N)Nc1ccc(Cl)cc1)/N=C(\N)Nc1ccc(Cl)cc1`, with 0.295 µg/mL (≈ 0.584 µM).
The value for `Oc1c(I)cc(Cl)c2cccnc12` was 0.482 µg/mL (≈ 1.58 µM); that for `O=C(O)c1cn(C2CC2)c2cc(N3CCNCC3)c(F)cc2c1=O` was 0.042 µg/mL (≈ 0.127 µM); that for `CC(C)N1CCN(c2ccc(OC[C@H]3CO[C@](Cn4cncn4)(c4ccc(Cl)cc4Cl)O3)cc2)CC1` was 7.54 µg/mL (≈ 14.2 µM).
`CNCCC=C1c2ccccc2CCc2ccccc21`: the IC90 was 16.8 µg/mL (≈ 63.6 µM).
The value for `NCCC[C@H](N)CC(=O)N[C@H]1CNC(=O)[C@H]([C@H]2C[C@H](O)NC(N)=N2)NC(=O)/C(=C/NC(N)=O)NC(=O)[C@H](CO)NC(=O)[C@H](CO)NC1=O` (β3hOrn-[Dap]SS[ΔAla(Z-3-ureido)][X2]; lactam 1-C) was 0.069 µg/mL (≈ 0.101 µM); that for `CC/C(=C(\c1ccccc1)c1ccc(OCCN(C)C)cc1)c1ccccc1` was 13.6 µg/mL (≈ 36.7 µM).
Then `CN(CCCCCCCCCCN(C)C(=O)Oc1cccc([N+](C)(C)C)c1)C(=O)Oc1cccc([N+](C)(C)C)c1`, with 2.19 µg/mL; and `O=C(Nc1ccc([N+](=O)[O-])cc1Cl)c1cc(Cl)ccc1O`, with 0.076 µg/mL (≈ 0.232 µM).
As to `CN(C)CC/C=C1\c2ccccc2Sc2ccc(Cl)cc21`, the IC90 is 3.93 µg/mL (≈ 12.4 µM).
As to `OCCN1CCN(CCCN2c3ccccc3Sc3ccc(C(F)(F)F)cc32)CC1`, the IC90 is 7.59 µg/mL (≈ 17.3 µM).
Then `CCCCc1oc2ccccc2c1C(=O)c1cc(I)c(OCCN(CC)CC)c(I)c1`, with 6.3 µg/mL (≈ 9.76 µM); and `COc1cccc2c1C(=O)c1c(O)c3c(c(O)c1C2=O)C[C@@](O)(C(=O)CO)C[C@@H]3O[C@H]1C[C@H](N)[C@H](O)[C@H](C)O1`, with 2.6 µg/mL (≈ 4.79 µM); and `CN(C(=O)CN(CCO)CC(=O)N(C)C(C)(C)Cc1ccccc1)C(C)(C)Cc1ccccc1`, with 15.6 µg/mL (≈ 33.4 µM).
Then `O=c1[nH]c2ccccc2n1C1CCN(CCCC(c2ccc(F)cc2)c2ccc(F)cc2)CC1`, with 2.34 µg/mL (≈ 5.06 µM).
As to `CCCCC(CC)CN1CN(CC(CC)CCCC)CC(C)(N)C1` (stereo not given), the 90% effect concentration (IC90) was 6.85 µg/mL (≈ 20.2 µM).
In the case of `CCCCCCCCNC(C)C(O)c1ccc(SC(C)C)cc1` (stereo not given), the IC90 is 2.25 µg/mL (≈ 6.67 µM).
The value for `CO[C@@H]1[C@@H](OC(N)=O)[C@@H](O)C(Oc2ccc3c(O)c(NC(=O)c4ccc(O)c(CC=C(C)C)c4)c(=O)oc3c2C)OC1(C)C` (stereo not given in full) was 4.96 µg/mL (≈ 8.1 µM); that for `CS(=O)(=O)c1ccc([C@@H](O)[C@@H](CO)NC(=O)C(Cl)Cl)cc1` was 2.42 µg/mL (≈ 6.81 µM); that for `CN(C)c1ccc(O)c2c1CC1CC3[C@@H](N(C)C)C(=O)C(C(N)=O)=C(O)[C@]3(O)C(=O)C1=C2O` (stereo not given in full) was 2.04 µg/mL (≈ 4.46 µM).
The value for `CC(=O)O[C@H]1C[C@@]2(C)[C@@H](C[C@@H](O)[C@H]3[C@@]4(C)CC[C@@H](O)[C@@H](C)C4CC[C@@]32C)/C1=C(\CCC=C(C)C)C(=O)O` (stereo not given in full) was 0.586 µg/mL (≈ 1.13 µM); that for `CC(Cc1ccccc1)NCCC(c1ccccc1)c1ccccc1` (stereo not given) was 4.55 µg/mL (≈ 13.8 µM); that for `COc1cc2cc3c4cc(OC)c(OC)cc4cc[n+]3c(C)c2cc1OC` was 2.13 µg/mL.
The value for `O=C(N/N=C/c1ccc([N+](=O)[O-])o1)c1ccc(O)cc1` was 1.54 µg/mL (≈ 5.58 µM).
`CC[C@H](C)[C@H]1O[C@]2(CC[C@@H]1C)C[C@@H]1C[C@@H](C/C=C(\C)[C@@H](O[C@H]3C[C@H](OC)[C@@H](O[C@H]4C[C@H](OC)[C@@H](O)[C@H](C)O4)[C@H](C)O3)[C@@H](C)/C=C/C=C3\CO[C@@H]4[C@H](O)C(C)=C[C@@H](C(=O)O1)[C@]34O)O2`: the IC90 was 1.29 µg/mL (≈ 1.48 µM).
The value for `Clc1ccc(COC(Cn2ccnc2)c2ccc(Cl)cc2Cl)c(Cl)c1` (stereo not given) was 1.82 µg/mL (≈ 4.38 µM); that for `CCC(C)[C@H]1O[C@]2(C=C[C@@H]1C)C[C@@H]1C[C@@H](C/C=C(\C)C(O[C@H]3C[C@H](OC)C(O[C@H]4C[C@H](OC)[C@@H](O)[C@H](C)O4)[C@H](C)O3)[C@@H](C)/C=C/C=C3\CO[C@@H]4[C@H](O)C(C)=C[C@@H](C(=O)O1)[C@]34O)O2` (stereo not given in full) was 2.72 µg/mL (≈ 3.12 µM).
The value for `CN[C@@H]1[C@@H](O)[C@@H](O[C@@H]2[C@@H](O)[C@H](O[C@H]3O[C@H]([C@@H](C)N)CC[C@H]3N)[C@@H](N)C[C@H]2N)OC[C@]1(C)O` was 0.859 µg/mL (≈ 1.85 µM).
Then `CCCCCCCCCCCCCCCC[N+](C)(C)CCN(Cc1ccc(OC)cc1)c1ncccn1`, with 1.1 µg/mL; and `CN(C)CCCN1c2ccccc2Sc2ccc(C(F)(F)F)cc21`, with 7.29 µg/mL (≈ 20.7 µM).
For `C1CCC(C(CC2CCCCN2)C2CCCCC2)CC1` (stereo not given), the IC90 is 1.99 µg/mL (≈ 7.16 µM).
Then `CCCCC(CC)CN=C(N)NC(N)=NCCCCCCN=C(N)NC(N)=NCC(CC)CCCC` (stereo not given), with 0.729 µg/mL (≈ 1.43 µM); and `CC(C)COCC(CN(Cc1ccccc1)c1ccccc1)N1CCCC1` (stereo not given), with 11.3 µg/mL (≈ 30.7 µM).

A word on the IC90: it is the concentration needed for an effect of 90%.
